# Experimental data from patent US7087626B2, “Pyrrole derivatives as pharmaceutical agents” (Eli Lilly and Company, priority 2001, dated 2006).
# How the values were obtained:
# Type in all cases: biochemical
# [1] = target: T1, p38α/SAPK2α (Homo sapiens, UniProt Q16539); test: p38α in vitro kinase assay; settings: 5 nM p38α, 62.5 uM EGFR substrate, 100 uM ATP, 30° C., 40 min
# T1 construct: purchased Upstate Biotechnology 14-251
# Method: p38α in vitro Kinase Assay
# Active p38α/SAPK2α was purchased from Upstate Biotechnology (cat#14-251). A known p38α substrate from EGFR was used in the assay (Young, et al. (1997) JBC 272: 12116-12121).
# Reactions were performed in 1× kinase buffer (25 mM Tris-HCl pH 7.5, 5 mM β-glycerophosphate, 2 mM DTT, 0.1 mM Na3VO4, 10 mM MgCl2, 1 uM Microcystin) with 5 nM p38α, 62.5 uM substrate, 40 uM to 0.2 nM compound dilution series in 1×KB/16% DMSO (final 4% DMSO concentration). Reactions were started by addition of 100 uM ATP (final concentration) with 1 uCi ^33P-γ-ATP in 1×KB and incubated at 30° C. for 40 min. Reactions were stopped with H3PO4 and quantitated on Millipore PH phosphocellulose filter plates by liquid scintillation counting on a MicroBeta JET.
# [2] = target: T2, TGF-β Type II (RII WT) receptor (Homo sapiens, UniProt P37173); test: TGF-β Receptor II (RII WT) in vitro kinase reaction; settings: 6×-HIS cytoplasmic kinase domain, 4 uM ATP, 30° C., 40 min
# T2 construct: The 6×-HIS tagged cytoplasmic kinase domain of each receptor was expressed and purified from Sf9 insect cell lysates; 6xHis; made in house; host or cells: Sf9 insect cells
# T2 sequence (P37173 244-544 limits assumed): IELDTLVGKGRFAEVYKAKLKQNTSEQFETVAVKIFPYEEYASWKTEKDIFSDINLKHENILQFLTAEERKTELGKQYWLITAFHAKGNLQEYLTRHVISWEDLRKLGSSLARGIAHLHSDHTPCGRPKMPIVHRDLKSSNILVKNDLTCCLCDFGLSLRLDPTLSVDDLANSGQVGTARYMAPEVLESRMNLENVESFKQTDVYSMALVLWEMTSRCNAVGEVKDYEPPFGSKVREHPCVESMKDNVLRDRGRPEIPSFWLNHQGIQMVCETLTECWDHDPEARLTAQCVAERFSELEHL
# Method: (§1) TGF-β Receptor I and II Purification and in vitro Kinase Reactions
# (§2) For TGF-β Type I (RIT204D) and Type II (RII WT) Receptors: The 6×-HIS tagged cytoplasmic kinase domain of each receptor was expressed and purified from Sf9 insect cell lysates as briefly described below:
# (§3) Cell pellets after 48-72 hrs of infection were lysed in lysis buffer (LB: 50 mM Tris pH 7.5, 150 mM NaCl, 50 mM NaF, 0.5% NP40 with freshly added 20 mM, β-mercaptoethanol, 10 mM imidazole, 1 mM PMSF, 1×EDTA-free Complete Protease Inhibitor (Boehringer Mannheim).
# Cell lysates were clarified: by centrifugation and […] filtered prior to purification by Ni/NTA affinity chromatography (Qiagen).
# Equilibrate with 10 CV of LB, load sample, wash with 10 CV RIPA buffer (50 mM Tris pH 7.5, 150 mM NaCl, 1% NP40, 1 mM EDTA, 0.25% sodium deoxycholate, added fresh 20 mM β-mercaptoethanol, 1 mM PMSF), wash with 10 CV LB, wash with 10 CV 1×KB (50 mM Tris pH 7.5, 150 mM NaCl, 4 mM MgCl2, 1 mM NaF, 2 mM β-mercaptoethanol), elute with a linear gradient of 1×KB containing 200 mM Imidazole.
# Both enzymes were approximately 90% pure and had autophosphorylation activity.
# (§4) Reactions: 170-200 nM enzyme in 1×KB, compound dilution series in 1×KB/16% DMSO (20 uM to 1 nM final concentration with 4% DMSO final concentration), reactions started by adding ATP mix (4 uM ATP/1 uCi ^33P-[…]-ATP final concentrations) in 1×KB.
# (§5) Reactions were incubated at 30° C. for 1 hr RIT204D or 40 min for RII WT. Reactions were stopped and quantitated using standard TCA/BSA precipitation onto Millipore FB glass fiber filter plates and by liquid scintillation counting on a MicroBeta JET.
# [3] = target: T3, TGF-β Type I (RIT204D) receptor (Homo sapiens, UniProt P36897, T204D); test: TGF-β Receptor I (RIT204D) in vitro kinase reaction; settings: 6×-HIS cytoplasmic kinase domain, 4 uM ATP, 30° C., 1 hr
# T3 construct: The 6×-HIS tagged cytoplasmic kinase domain of each receptor was expressed and purified from Sf9 insect cell lysates; 6xHis; made in house; host or cells: Sf9 insect cells
# T3 sequence (P36897 148-503 T204D limits assumed): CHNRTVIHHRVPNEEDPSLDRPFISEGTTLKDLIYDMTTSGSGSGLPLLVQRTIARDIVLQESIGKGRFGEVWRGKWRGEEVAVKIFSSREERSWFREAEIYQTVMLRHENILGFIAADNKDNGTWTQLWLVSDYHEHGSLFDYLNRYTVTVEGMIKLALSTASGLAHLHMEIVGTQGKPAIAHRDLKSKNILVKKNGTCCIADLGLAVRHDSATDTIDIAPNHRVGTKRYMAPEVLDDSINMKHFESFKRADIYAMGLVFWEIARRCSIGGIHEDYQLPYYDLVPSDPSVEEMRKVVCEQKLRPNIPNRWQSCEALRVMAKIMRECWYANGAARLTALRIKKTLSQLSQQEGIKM
# Method: as §1, §2, §3, §4, §5
# T1 sequence (Q16539 whole entry): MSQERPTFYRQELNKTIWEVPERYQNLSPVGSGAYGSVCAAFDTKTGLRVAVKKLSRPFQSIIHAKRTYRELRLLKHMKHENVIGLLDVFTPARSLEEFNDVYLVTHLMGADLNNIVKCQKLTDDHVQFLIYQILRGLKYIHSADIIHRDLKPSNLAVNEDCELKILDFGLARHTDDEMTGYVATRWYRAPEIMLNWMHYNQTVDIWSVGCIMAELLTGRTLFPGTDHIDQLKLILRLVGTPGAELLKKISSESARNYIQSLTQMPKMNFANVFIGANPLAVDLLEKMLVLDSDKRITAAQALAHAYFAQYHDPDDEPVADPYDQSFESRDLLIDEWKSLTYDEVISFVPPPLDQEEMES
SMILES,IC50 [1],IC50 [2],IC50 [3]
"CN1CCN(CCCOc2ccc3c(-c4c(-c5ccccn5)nn5c4CCC5)ccnc3c2)CC1 [7-[3-(4-Methyl-piperazin-1-yl)-propoxy]-4-(2-pyridin-2-yl-5,6-dihydro-4H-pyrrolo[1,2-b]pyrazol-3-yl)-quinoline]",< 20 µM,,
"O=C(NCCc1c[nH]cn1)c1ccc2c(-c3c(-c4ccccn4)nn4c3CCC4)ccnc2c1 [4-(2-Pyridin-2-yl-5,6-dihydro-4H-pyrrolo[1,2-b]pyrazol-3-yl)-quinoline-7-carboxylic acid [2-(1H-imidazol-4-yl)-ethyl]-amide]",< 20 µM,,
"Cc1cccc(-c2nn3c(c2-c2ccnc4ccc(C(=O)O)cc24)CCC3)n1 [4-[2-(6-Methyl-pyridin-2-yl)-5,6-dihydro-4H-pyrrolo[1,2-b]pyrazol-3-yl]-quinoline-6-carboxylic acid]",< 20 µM,,
"OCCCSc1ccc2c(-c3c(-c4ccccn4)nn4c3CCC4)ccnc2c1 [3-[4-(2-Pyridin-2-yl-5,6-dihydro-4H-pyrrolo[1,2-b]pyrazol-3-yl)-quinolin-7-ylsulfanyl]-propan-1-ol]",< 20 µM,< 20 µM,
"CN(C)CC(=O)Nc1ccc2c(-c3c(-c4ccccn4)nn4c3CCC4)ccnc2c1 [2-Dimethylamino-N-[4-(2-pyridin-2-yl-5,6-dihydro-4H-pyrrolo[1,2-b]pyrazol-3-yl)-quinolin-7-yl]-acetamide]",< 20 µM,,
"c1ccc(-c2nn3c(c2-c2ccnc4cc(OCCCn5ccnc5)ccc24)CCC3)nc1 [7-(3-Imidazol-1-yl-propoxy)-4-(2-pyridin-2-yl-5,6-dihydro-4H-pyrrolo[1,2-b]pyrazol-3-yl)-quinoline]",< 20 µM,,
"Cc1cccc(-c2nn3c(c2-c2ccnc4ccc(-c5ccc(F)cc5)cc24)CCC3)n1 [6-(4-Fluoro-phenyl)-4-[2-(6-methyl-pyridin-2-yl)-5,6-dihydro-4H-pyrrolo[1,2-b]pyrazol-3-yl]-quinoline]",< 20 µM,,
"Cc1cccc(-c2nn3c(c2-c2ccnc4cc(N)ccc24)CCC3)n1 [7-Amino-4-[2-(6-Methyl-pyridin-2-yl)-5,6-dihydro-4H-pyrrolo[1,2-b]pyrazol-3-yl]-quinoline]",< 20 µM,,
"Cc1cccc(-c2nn3c(c2-c2ccc4c(c2)OCO4)CCC3)n1 [3-Benzo[1,3]dioxol-5-yl-2-(6-methyl-pyridin-2-yl)-5,6-dihydro-4H-pyrrolo[1,2-b]pyrazole]",< 20 µM,,
"c1ccc(-c2nn3c(c2-c2ccc4ccccc4c2)CCC3)nc1 [3-Naphthalen-2-yl-2-pyridin-2-yl-5,6-dihydro-4H-pyrrolo[1,2-b]pyrazole]",< 20 µM,,
"Fc1ccc(-c2nn3c(c2-c2ccnc4ccccc24)CCC3)cc1 [4-[2-(4-Fluoro-phenyl)-5,6-dihydro-4H-pyrrolo[1,2-b]pyrazol-3-yl]-quinoline]",< 20 µM,,
"CNC(=O)c1ccc2c(-c3c(-c4ccccn4)nn4c3CCC4)ccnc2c1 [4-(2-Pyridin-2-yl-5,6-dihydro-4H-pyrrolo[1,2-H]pyrazol-3-yl)-quinoline-7-carboxylic acid methylamide]",< 20 µM,< 20 µM,< 20 µM
"Cc1cccc(-c2nn3c(c2-c2ccc(F)cc2)CC[C@@H]3CC#N)n1 [(R)-[3-(4-Fluoro-phenyl)-2-(6-methyl-pyridin-2-yl)-5,6-dihydro-4H-pyrrolo[1,2-b]pyrazol-6-yl]-acetonitrile]",< 20 µM,,
"COc1ccc2c(-c3c(-c4ccccn4)nn4c3CCC4)ccnc2c1 [7-Methoxy-4-(2-pyridin-2-yl-5,6-dihydro-4H-pyrrolo[1,2-b]pyrazol-3-yl)-quinoline]",< 20 µM,,
"CN(C)CCNC(=O)COc1ccc2c(-c3c(-c4ccccn4)nn4c3CCC4)ccnc2c1 [N-(2-dimethylamino-ethyl)-2-[4-(2-pyridin-2-yl-5,6-dihydro-4H-pyrrolo[1,2-b]pyrazol-3-yl)-quinolin-7-yloxy]-acetamide]",,< 20 µM,< 20 µM
"CSc1ccc2nccc(-c3c(-c4ccccn4)nn4c3CCC4)c2c1 [6-Methylsulfanyl-4-(2-pyridin-2-yl-5,6-dihydro-4H-pyrrolo[1,2-b]pyrazol-3-yl)-quinoline]",< 20 µM,,
